Test results from PubChem BioAssay AID1902 (Broad Institute, 2009).
The source made the active and inactive calls.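 How the source made its calls: active means EC50 no more than a set limit of log units above the highest dose; inactive means the rest.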

Target: S. pyogenes SKKanGAS, kanamycin survival, BacTiterGlo, 6 h
Assay: S. pyogenes SKKanGAS kanamycin growth inhibitors – SKKanGAS strain, luminescence, dose confirmation, streptokinase promoter inhibitor project, dose response (AID 1902);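 further: lower survival reflects blocked streptokinase promoter driving kanamycin resistance gene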

Row | SMILES | EC50
1 | CCOc1ccc(/C=N/NC(=S)NC2CC3CC2C2C=CCC32)cc1 (stereo not drawn) | 5.48 µM
2 | CCCCNC(=O)c1onc(CSc2ccc(C(C)C)cc2)c1C(=O)O | 4.13 µM
3 | CC(C)OC(=O)c1c2nc3ccccc3nc2n2c1[nH]c(=O)c1ccccc12 | 0.91 µM
4 | C/C(Cl)=C\Cn1c(O)c(N=NC(N)=S)c2cc(Br)ccc21 | 1.36 µM
5 | Cc1ccc(C)c(N2CCN(C(=O)CCCCCn3c(=S)[nH]c4ccc(N5CCOCC5)cc4c3=O)CC2)c1 | 7.93 µM
6 | NC(=NCCCCCCN=C(N)/N=C(\N)Nc1ccc(Cl)cc1)/N=C(\N)Nc1ccc(Cl)cc1 | 0.789 µM
7 | CCOC(=O)c1cnn(-c2nc3c(C)cccc3s2)c1C(F)(F)F | 12.5 µM
8 | Cc1cc(Oc2ccc(Cl)cc2)nc(-c2ccccc2O)n1 | > 15 µM (inactive)
9 | Oc1c(C(Nc2ccccn2)c2ccccn2)ccc2cccnc12 (stereo not drawn) | 10.7 µM
10 | O=C(N/N=C/c1cc([N+](=O)[O-])cc(Br)c1O)C12CC3CCC(CC(C3)C1)C2 | 5.07 µM
11 | Cc1ccc(N2C(=O)C3CC(c4ccccc4)=C4C5C=CC(C6C(=O)N(c7ccc(C)cc7)C(=O)C56)C4C3C2=O)cc1 (stereo not drawn) | 1.39 µM
12 | COC(=O)c1ccc(CSc2cc(C)c3cc(C)cc(C)c3n2)o1 | 4.86 µM
13 | CCC(CC)c1nn2c(N)c(/C=C3\C(C)=Nc4ccccc43)c(=O)nc2s1 | 2.57 µM
14 | COc1cc(C(=O)NC(=S)Nc2ccc(Cc3ccncc3)cc2)cc(OC)c1OC | 2.45 µM
15 | Cc1ccc(-c2cnc(N)n2C)cc1C | 4.13 µM
16 | Oc1ccccc1C(Nc1nccs1)c1ccc2cccnc2c1O (stereo not drawn) | 4.35 µM
17 | Cc1nn(Cc2ccccc2Cl)c2sc(C(=O)Nc3ccccc3N3CCOCC3)cc12 | 2.92 µM
18 | CCN1/C(=C\C=C\C2=[N+](CC)c3ccccc3C2(C)C)C(C)(C)c2ccccc21 | 7.34 µM
19 | COc1cc2oc3ccc(C#Cc4ccc(N)cc4)cc3c(=O)c2cc1OC | 0.799 µM
20 | COc1ccc2c(c1)[nH]c1c(=O)n(CCc3cnc[nH]3)cnc12 | > 15 µM (inactive)
21 | N#CC(C#N)=NNc1ccc([N+](=O)[O-])cc1 | 3.72 µM
22 | CCOC(=O)/C(=N\Nc1ccc(Cl)cc1)c1csc(Nc2ccccc2)n1 | 1.77 µM
23 | COc1cccc(-c2coc3cc4oc(=O)c(CCC(=O)O)c(C)c4cc23)c1 | 5.12 µM
24 | O=C(Nc1nnc(C2COc3ccccc3O2)o1)c1ccc(F)cc1 (stereo not drawn) | 1.47 µM
25 | O=C1c2ccccc2CCC12N=NCC2c1ccc(Br)cc1 (stereo not drawn) | 14.8 µM
26 | Cc1cc(/C=C2\SC(=S)NC2=O)c(C)n1-c1cccc(O)c1 | 3.06 µM
27 | O=C(COn1nnc2ccc(C(F)(F)F)cc21)Nc1nnc(-c2ccccc2)o1 | 2.51 µM

Row | SMILES | EC50
28 | Cn1c(CNC(=O)CNC(=O)c2ccc(F)cc2)cc(=O)n(C)c1=O | > 15 µM (inactive)
29 | O=C(N/N=C/c1cc(Cl)cc([N+](=O)[O-])c1O)c1ccccc1NS(=O)(=O)c1cccs1 | 12 µM
30 | CCCCCCCCCCCCC/C=C/[C@@H](O)[C@@H](N)CO | 2.56 µM
31 | CC(C)c1ccccc1OCC(=O)NC1CCCc2ccccc21 (stereo not drawn) | 11.7 µM
32 | CCCn1c(NC(=O)c2ccc(Cl)c(S(=O)(=O)N3CCCC3)c2)nc2ccccc21 | 1.67 µM
33 | O=C(Nc1nc2ccccc2n1CCOc1ccccc1)c1ccco1 | 6.87 µM
34 | O=C1N/C(=N\c2ccccn2)SC1Cc1ccc(Cl)cc1 (stereo not drawn) | > 15 µM (inactive)
35 | Cc1ccc2sc(NNC(=O)c3cc(=O)c4ccccc4o3)nc2c1C | 1.18 µM
36 | COc1ccccc1Sc1nc(-c2ccccn2)ncc1OC | 14.7 µM
37 | O=C(Nc1cccc(F)c1)N1CCCCCC1 | > 15 µM (inactive)
38 | O=c1[nH]c2cc3c(cc2cc1CN(CCc1ccccc1)Cc1nnnn1CC1CCCO1)OCO3 (stereo not drawn) | > 15 µM (inactive)
39 | CCOc1ccc2c(c1)c1nnc(SCC(=O)N3CCC(C)CC3)nc1n2C | 15.6 µM
40 | O=C(/C=C/c1ccc(F)cc1)NC(=S)NNC(=O)c1cnccn1 | 1.96 µM
41 | O=C(CC(=O)c1cc(Cl)ccc1O)c1ccccc1 | 1.01 µM
42 | CCc1ccc(OCC(=O)NC(NC(=S)Nc2ccc(C)cc2C)C(Cl)(Cl)Cl)cc1 (stereo not drawn) | 4.44 µM
43 | CC1(C)N=C(N)N=C(N)N1c1ccccc1 | 0.325 µM
44 | O=C(CN(C(=O)Cn1nnc(-c2ccccc2F)n1)c1cccc2c1CCCC2)NCc1ccccc1 | 5.32 µM
45 | O=C(NC(=S)Nc1ccc(Cl)cn1)C(c1ccccc1)c1ccccc1 | 3.43 µM
46 | O=C(Nc1cccc(-c2csc(Nc3ccc(Cl)cc3)n2)c1)c1ccccc1 | 4.45 µM
47 | CCOc1cc(/C=N/Nc2cc(C)nc(-n3nc(C)cc3C)n2)ccc1O | 0.853 µM
48 | CNC(=O)c1c(NC(=O)c2ccc(N3C(=O)CCC3=O)cc2)sc2c1CCC(C)C2 (stereo not drawn) | 15.7 µM
49 | O=C(Cc1ccc(Br)cc1)Nc1nc2ccccc2[nH]1 | 4.55 µM
50 | CCn1nc(-c2ccccc2)nc2c(=O)n(C)c(=O)nc1-2 | 1.54 µM
51 | C[C@H]1[C@H](C)CC[C@]2(C(=O)O)CC[C@]3(C)C(=CC[C@@H]4[C@@]5(C)CC[C@H](O)C(C)(C)[C@@H]5CC[C@]43C)[C@H]12 | 1.79 µM
52 | CC(C)(C)c1cc[n+](C2=C([O-])c3ccccc3C(=O)/C2=N\S(=O)(=O)c2ccccc2)cc1 | 3.2 µM
53 | C[C@H]1[C@H](C)CC[C@]2(C(=O)O)CC[C@]3(C)C(=CC[C@@H]4[C@@]5(C)C[C@@H](O)[C@H](O)C(C)(C)[C@@H]5CC[C@]43C)[C@H]12 | 2.81 µM
